Values quoted from earlier work as cited in US20240398764A1, “METHODS OF TREATING DISEASES ASSOCIATED WITH SENESCENT CELL ACCUMULATION” (University of Florida Research Foundation, Incorporated, priority 2021, published 2024).

Columns and labels:
[1] = tested on: platelets; settings: literature statement; cited from earlier work
[2] = tested on: SnCs; settings: vs ABT263; cited from earlier work
[3] = tested on: platelets; settings: vs ABT263; cited from earlier work

SMILES	Platelet apoptosis / thrombocytopenia [1]	Potency against SnCs compared with ABT263 [2]	Toxicity to platelets compared with ABT263 [3]
CC1(C)CCC(CN2CCN(c3ccc(C(=O)NS(=O)(=O)c4ccc(NCC5CCOCC5)c([N+](=O)[O-])c4)c(Oc4cnc5[nH]ccc5c4)c3)CC2)=C(c2ccc(Cl)cc2)C1 [ABT199]	does not induce thrombocytopenia		
CC1(C)CCC(c2ccc(Cl)cc2)=C(CN2CCN(c3ccc(C(=O)NS(=O)(=O)c4ccc(N[C@H](CCN5CCOCC5)CSc5ccccc5)c(S(=O)(=O)C(F)(F)F)c4)cc3)CC2)C1 [ABT263]	induces platelet apoptosis and results in severe thrombocytopenia		
CC1(C)CCC(c2ccc(Cl)cc2)=C(CN2CCN(c3ccc(C(=O)NS(=O)(=O)c4ccc(N[C@H](CCN5CCN(C(=O)CCCn6cc(COCCOCCNc7cccc8c7C(=O)N(C7CCC(=O)NC7=O)C8=O)nn6)CC5)CSc5ccccc5)c(S(=O)(=O)C(F)(F)F)c4)cc3)CC2)C1 (stereo partly shown) [PZ15227]		equally or slightly more potent against SnCs	less toxic to platelets
